These results are taken from US20200347033A1, “MODULATORS OF THE INTEGRATED STRESS PATHWAY” (Calico Life Sciences LLC, priority 2017, published 2020).

Where only a bound is given, the exact number is not on record here.

The first data set deals with HEK293T cells carrying the ATF4 luciferase reporter. Briefly: ATF4-Luc assay (in vitro model of vanishing white matter disease). The data set is classed as cell-based, human. The conditions noted are these: Homo sapiens, HEK-293T; HEK293T cells with ATF4 5'-UTR firefly luciferase reporter; 1 μg/mL tunicamycin; 7 hours; One Glo luminescence. As to the method:
In order to test exemplary compounds of the invention in a cellular context, a stable VWMD cell line was first constructed. The ATF4 reporter was prepared by fusing the human full-length ATF4 5′-UTR (NCBI Accession No. BC022088.2) in front of the firefly luciferase (FLuc) coding sequence lacking the initiator methionine as described in Sidrauski et al (eLife 2013). The construct was used to produce recombinant retroviruses using standard methods and the resulting viral supernatant was used to transduce HEK293T cells, which were then subsequently selected with puromycin to generate a stable cell line.
HEK293T cells carrying the ATF4 luciferase reporter were plated on polylysine coated 384-well plates (Greiner Bio-one) at 30,000 cells per well. Cells were treated the next day with 1 μg/mL tunicamycin and 200 nM of a compound of Formula (I) for 7 hours. Luminescence was measured using One Glo (Promega) as specified by the manufacturer. Cells were maintained in DMEM with L-glutamine supplemented with 10% heat-inactivated FBS (Gibco) and Antibiotic-Antimycotic solution (Gibco).
Table 2 below summarizes the EC50 data obtained using the ATF4-Luc assay for exemplary compounds of the invention.
For orientation: In a reporter assay the amount or activity of a reporter protein is the signal.
On to `O=C(COc1ccc(Cl)c(F)c1)NC12CC(N3CCC(Oc4ccc(C(F)(F)F)nc4)C3=O)(C1)C2` (stereo not drawn) [Compound 101, 2-(4-chloro-3-fluorophenoxy)-N-[3-(2-oxo-3-{[6-(trifluoromethyl)pyridin-3-yl]oxy}pyrrolidin-1-yl)bicyclo[1.1.1]pentan-1-yl]acetamide], for which the EC50 lay within 250 to 1000 nM.

As for `O=C(COc1ccc(Cl)c(F)c1)NC12CC(N3CC(c4ccc(Cl)c(F)c4)=CC3=O)(C1)C2` [Compound 165, 2-(4-chloro-3-fluorophenoxy)-N-{3-[4-(4-chloro-3-fluorophenyl)-2-oxo-2,5-dihydro-1H-pyrrol-1-yl]bicyclo[1.1.1]pentan-1-yl}acetamide], the EC50 is less than 50 nM.

For `O=C(COc1ccc(Cl)c(F)c1)N[C@H]1CC[C@H](N2CCN(c3ccc(C(F)(F)F)cn3)C2=O)CC1` [Compound 132, 2-(4-chloro-3-fluorophenoxy)-N-[(1r,4r)-4-{2-oxo-3-[5-(trifluoromethyl)pyridin-2-yl]imidazolidin-1-yl}cyclohexyl]acetamide], the EC50 was less than 50 nM.

Turning to `O=C(COc1ccc(Cl)c(F)c1)NC12CC(N3CCN(c4ccccc4)C3=O)(C1)C2` [Compound 115, 2-(4-chloro-3-fluorophenoxy)-N-[3-(2-oxo-3-phenylimidazolidin-1-yl)bicyclo[1.1.1]pentan-1-yl]acetamide], the EC50 lay in the range of 250 to 1000 nM.

In the case of `O=C(COc1ccc(Cl)c(F)c1)NC12CC(N3CCN(c4ccc(Cl)c(F)c4)C3=O)(C1)C2` [Compound 108, 2-(4-chloro-3-fluorophenoxy)-N-{3-[3-(4-chloro-3-fluorophenyl)-2-oxoimidazolidin-1-yl]bicyclo[1.1.1]pentan-1-yl}acetamide], the EC50 was less than 50 nM.

As for `O=c1[nH]c2cc(Cl)ccc2c(=O)n1C12CC(NCCOc3ccc(Cl)c(F)c3)(C1)C2` [Compound 139, 7-chloro-3-(3-{[2-(4-chloro-3-fluorophenoxy)ethyl]amino}bicyclo[1.1.1]pentan-1-yl)quinazoline-2,4(1H,3H)-dione], the EC50 was more than 2000 nM.

On to `O=C(N[C@H]1CC[C@H](N2CCN(c3ccc(C(F)F)cn3)C2=O)CC1)OCc1ccccc1` [Compound 129, benzyl [(1r,4r)-4-{3-[5-(difluoromethyl)pyridin-2-yl]-2-oxoimidazolidin-1-yl}cyclohexyl]carbamate], for which the EC50 is more than 2000 nM.

Consider `O=C(COc1ccc(Cl)c(F)c1)N[C@H]1CC[C@H](N2CCN(c3ccc(Cl)cn3)C2=O)CC1` [Compound 135, 2-(4-chloro-3-fluorophenoxy)-N-{(1r,4r)-4-[3-(5-chloropyridin-2-yl)-2-oxoimidazolidin-1-yl]cyclohexyl}acetamide], for which the EC50 was less than 50 nM.

For `O=C(COc1ccc(Cl)c(F)c1)NC12CC(N3C[C@H](c4ccc(Cl)c(F)c4)OC3=O)(C1)C2` (single isomer, unassigned) [Compound 156], the EC50 lay in the range of 250 to 1000 nM.

As to `O=C(COc1ccc(Cl)c(F)c1)NC12CC(N3CNc4cc(F)c(F)cc4C3=O)(C1)C2` [Compound 137, 2-(4-chloro-3-fluorophenoxy)-N-[3-(6,7-difluoro-4-oxo-1,4-dihydroquinazolin-3(2H)-yl)bicyclo[1.1.1]pentan-1-yl]acetamide], the EC50 lay within 250 to 1000 nM.

For `O=C(COc1ccc(Cl)c(F)c1)N[C@H]1CC[C@H](N2CCN(c3ccc4c(c3)OC(F)(F)O4)C2=O)CC1` [Compound 134, 2-(4-chloro-3-fluorophenoxy)-N-{(1r,4r)-4-[3-(2,2-difluoro-2H-1,3-benzodioxol-5-yl)-2-oxoimidazolidin-1-yl]cyclohexyl}acetamide], the EC50 was less than 50 nM.

Tested on in another data set: not given
Test: not given
Conditions: not given
`O=C(COc1ccc(Cl)c(F)c1)N[C@H]1CC[C@H](N2CCN(c3ccc(C(F)(F)F)cn3)C2=O)CC1` [Compound 132, 2-(4-chloro-3-fluorophenoxy)-N-[(1r,4r)-4-{2-oxo-3-[5-(trifluoromethyl)pyridin-2-yl]imidazolidin-1-yl}cyclohexyl]acetamide] returned a melting point of 232 °C.

One may read the EC50 as the concentration that produces a half-maximal response. The term melting point denotes the temperature, or range, at which the solid turns liquid.
